Values quoted from earlier work, collected in US20190083000A1, “PERSONALIZED FOOD FOR DYSPHAGIA MANAGEMENT” (NESTEC S.A., priority 2016, published 2019).

Details: database Episuite 4.1

Compared with 2-Methylpropanal, `CC(=O)C(C)=O` [2,3-Butanedione] is lower in “Volatility: Air/water partition coefficient log K [w/v]” value: −2.31 w/v for the first, −5.09 w/v for the second.

First: CCC(=O)C(C)=O [2,3-Pentanedione]
Second: CCC(C)C=O (stereo not drawn) [2-Methylbutanal]
The “Volatility: Air/water partition coefficient log K [w/v]” value of the first is lower: −4.97 w/v for the first, −2.20 w/v for the second.

Compared with `CC(C)CC=O` [3-Methylbutanal], `CC=O` [Acetaldehyde] is lower in “Volatility: Air/water partition coefficient log K [w/v]” value: −2.19 w/v for the first, −2.56 w/v for the second.

First: CSC [Dimethylsulfide]
Second: CCCC(=O)OCC [Ethylbutyrate]
The “Volatility: Air/water partition coefficient log K [w/v]” value of the first is higher: −1.49 w/v for the first, −1.79 w/v for the second.

Going from `C=C(C)[C@H]1CC=C(C)CC1` [Limonene] to `CS` [Methanethiol], the “Volatility: Air/water partition coefficient log K [w/v]” value falls from 0.12 w/v to −0.97 w/v.

In the case of `COc1cc(C=O)ccc1O` [Vanillin], the “Volatility: Air/water partition coefficient log K [w/v]” value is given as −8.47 w/v.

Compared with `CC(=O)C(C)=O` [2,3-Butanedione], `CCC(=O)C(C)=O` [2,3-Pentanedione] is higher in “Lipophilicity: Oil/Water partition coefficient log Kow [w/v]” value: −1.34 w/v for the first, −0.85 w/v for the second.

`CCC(C)C=O` (stereo not drawn) [2-Methylbutanal] and `CC(C)CC=O` [3-Methylbutanal] are the same in “Lipophilicity: Oil/Water partition coefficient log Kow [w/v]” value: 1.23 w/v for the first, 1.23 w/v for the second.

Going from `CC=O` [Acetaldehyde] to `CS` [Methanethiol], the “Lipophilicity: Oil/Water partition coefficient log Kow [w/v]” value rises from −0.17 w/v to 0.78 w/v.

First: CSC [Dimethylsulfide]
Second: CCCC(=O)OCC [Ethylbutyrate]
The “Lipophilicity: Oil/Water partition coefficient log Kow [w/v]” value of the first is lower: 0.92 w/v for the first, 1.85 w/v for the second.

First: C=C(C)[C@H]1CC=C(C)CC1 [Limonene]
Second: COc1cc(C=O)ccc1O [Vanillin]
The “Lipophilicity: Oil/Water partition coefficient log Kow [w/v]” value of the first is higher: 4.38 w/v for the first, 1.05 w/v for the second.
